Results: patent US12195429B2, “Cannabinoid derivatives” (CANOPY GROWTH CORPORATION, priority 2019, dated 2025)

Key:
human CB1 receptor [1] = biological target: T1, human CB1 receptor (Homo sapiens, UniProt P21554); experiment: CB1 radioligand competitive binding assay ([3H]CP 55,940 displacement); details: for Selectivity CB1: fold difference in binding affinity, CB1 over CB2, 1.00 = about the same affinity for both receptors
T1 construct: host or cells: CHO-K1

human CB2 receptor = biological target: T2, human CB2 receptor (Homo sapiens, UniProt P34972); experiment: CB2 radioligand competitive binding assay ([3H]CP 55,940 displacement); details: for Selectivity CB2: fold difference in binding affinity, CB2 over CB1, 1.00 = about the same affinity for both receptors
T2 construct: host or cells: CHO-K1

human CB1 receptor [2] = biological target: T1, human CB1 receptor; experiment: PathHunter β-arrestin functional assay, CB1 receptor, antagonist mode; assay type: cell-based
human CB1 receptor [3] = biological target: T1, human CB1 receptor; experiment: PathHunter β-arrestin functional assay, CB1 receptor, agonist mode; assay type: cell-based; details: PathHunter CHO-K1 CNR1 β-arrestin cells; normalized to CP55,940
[4] = read-out: IC50 towards human CB1 receptor, antagonist mode

T2 sequence (P34972 whole entry): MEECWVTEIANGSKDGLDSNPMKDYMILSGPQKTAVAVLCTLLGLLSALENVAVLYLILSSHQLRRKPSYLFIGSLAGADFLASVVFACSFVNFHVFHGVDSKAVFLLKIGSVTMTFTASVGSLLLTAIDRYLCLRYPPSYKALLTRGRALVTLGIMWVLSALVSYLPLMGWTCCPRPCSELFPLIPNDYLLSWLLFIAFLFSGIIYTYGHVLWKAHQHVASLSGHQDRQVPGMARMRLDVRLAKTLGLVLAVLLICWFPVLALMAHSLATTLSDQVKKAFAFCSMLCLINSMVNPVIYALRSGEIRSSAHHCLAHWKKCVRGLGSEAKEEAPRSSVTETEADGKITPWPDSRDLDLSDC
T1 sequence (P21554 whole entry): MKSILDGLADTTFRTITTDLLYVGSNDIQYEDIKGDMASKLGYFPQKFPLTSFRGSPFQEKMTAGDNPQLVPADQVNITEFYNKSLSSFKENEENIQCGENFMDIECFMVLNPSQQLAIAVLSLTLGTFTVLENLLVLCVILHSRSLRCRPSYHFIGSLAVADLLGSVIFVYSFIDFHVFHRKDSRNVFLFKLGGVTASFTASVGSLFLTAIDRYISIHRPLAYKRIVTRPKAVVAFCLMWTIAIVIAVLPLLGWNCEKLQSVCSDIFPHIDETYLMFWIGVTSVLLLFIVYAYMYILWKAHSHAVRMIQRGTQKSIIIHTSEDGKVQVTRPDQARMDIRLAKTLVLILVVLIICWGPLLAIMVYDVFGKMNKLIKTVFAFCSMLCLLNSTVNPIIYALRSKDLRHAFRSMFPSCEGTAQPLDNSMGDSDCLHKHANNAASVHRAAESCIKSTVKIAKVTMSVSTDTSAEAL

**Q.** `CCCCCc1cc(O)c(C2C=C(C)CCC2)c(O)c1-c1nnn[nH]1` (centres unmarked) [Compound 3c, 5′-methyl-4-pentyl-3-(1H-tetrazol-5-yl)-1′,2′,3′,4′-tetrahydro-[1,1′-biphenyl]-2,6-diol] was tested. Which IC50 (human CB1 receptor [1]) did it give?
**A.** The IC50 was 1 to 4.99 µM.

**Q.** And the IC50 (human CB2 receptor)?
**A.** Its IC50 is 1000 to 4990 nM.

**Q.** What about the IC50 (human CB1 receptor [2]; [4]) of the same compound?
**A.** Its IC50 is 1000 to 3000 nM.

**Q.** With `C=C(C)[C@@H]1CCC(C)=C[C@H]1c1c(O)cc(CCCCC)c(-c2nnn[nH]2)c1O` [Compound 3d, 5′-methyl-4-pentyl-2′-(prop-1-en-2-yl)-3-(1H-tetrazol-5-yl)-1′,2′,3′,4′-tetrahydro-[1,1′-biphenyl]-2,6-diol] as the compound, how does the IC50 (human CB1 receptor [1]) read?
**A.** The IC50 was 1 to 4.99 µM.

**Q.** What about the “Selectivity CB1” value (human CB1 receptor [1]) of the same compound?
**A.** Its value is 1.00 fold.

**Q.** What about the IC50 (human CB2 receptor) of the same compound?
**A.** The IC50 was 1000 to 4990 nM.

**Q.** And the “Selectivity CB2” value (human CB2 receptor)?
**A.** The value was 1.00 fold.

**Q.** With `CCCCCc1cc(O)c(C2C=C(C)CCC2)c(O)c1-c1cccnc1` (centres unmarked) [Compound 12c, 5′-methyl-4-pentyl-3-(pyridin-3-yl)-1′,2′,3′,4′-tetrahydro-[1,1′-biphenyl]-2,6-diol] as the compound, how does the IC50 (human CB1 receptor [1]) read?
**A.** The IC50 was over 5 µM.

**Q.** What about the IC50 (human CB2 receptor) of the same compound?
**A.** Its IC50 is 500 to 990 nM.

**Q.** What about the “Selectivity CB2” value (human CB2 receptor) of the same compound?
**A.** Its value is 7.27 fold.

**Q.** Which IC50 (human CB1 receptor [1]) does the source give for `C=C(C)[C@@H]1CCC(C)=C[C@H]1c1c(O)cc(CCCCC)c(-c2cccnc2)c1O` [Compound 12d, 5′-methyl-4-pentyl-2′-(prop-1-en-2-yl)-3-(pyridin-3-yl)-1′,2′,3′,4′-tetrahydro-[1,1′-biphenyl]-2,6-diol] here?
**A.** The IC50 was 1 to 4.99 µM.

**Q.** And the IC50 (human CB2 receptor)?
**A.** Its IC50 is 1000 to 4990 nM.

**Q.** And the “Selectivity CB2” value (human CB2 receptor)?
**A.** Its value is 1.39 fold.

**Q.** For `CCCCCc1cc(O)c(C2C=C(C)CCC2)c(O)c1-c1cncnc1` (centres unmarked) [Compound 13c, 5′-methyl-4-pentyl-3-(pyrimidin-5-yl)-1′,2′,3′,4′-tetrahydro-[1,1′-biphenyl]-2,6-diol], which IC50 (human CB1 receptor [1]) is on record?
**A.** The IC50 was 1 to 4.99 µM.

**Q.** And the IC50 (human CB2 receptor)?
**A.** Its IC50 is 1000 to 4990 nM.

**Q.** For `C=C(C)[C@@H]1CCC(C)=C[C@H]1c1c(O)cc(CCCCC)c(-c2cncnc2)c1O` [Compound 13d, 5′-methyl-4-pentyl-2′-(prop-1-en-2-yl)-3-(pyrimidin-5-yl)-1′,2′,3′,4′-tetrahydro-[1,1′-biphenyl]-2,6-diol], which IC50 (human CB1 receptor [1]) is on record?
**A.** The IC50 was 1 to 4.99 µM.

**Q.** And the IC50 (human CB2 receptor)?
**A.** The IC50 was 1000 to 4990 nM.

**Q.** What about the “Selectivity CB2” value (human CB2 receptor) of the same compound?
**A.** Its value is 2.35 fold.

**Q.** What does the source list for `C=C(C)[C@@H]1CCC(C)=C[C@H]1c1c(O)cc(CCCCC)c(-c2ccncc2)c1O` [Compound 14d, 5′-methyl-4-pentyl-2′-(prop-1-en-2-yl)-3-(pyridin-4-yl)-1′,2′,3′,4′-tetrahydro-[1,1′-biphenyl]-2,6-diol]?
**A.** IC50 (human CB1 receptor [1]): 1 to 4.99 µM; Selectivity CB1 (human CB1 receptor [1]): 1.00 fold; IC50 (human CB2 receptor): 1000 to 4990 nM; Selectivity CB2 (human CB2 receptor): 1.00 fold

**Q.** Which results are given for `CCCCCc1cc(O)c(C2C=C(C)CCC2)c(O)c1-c1ccco1` (centres unmarked) [Compound 15c, 3-(furan-2-yl)-5′-methyl-4-pentyl-1′,2′,3′,4′-tetrahydro-[1,1′-biphenyl]-2,6-diol]?
**A.** IC50 (human CB1 receptor [1]): 1 to 4.99 µM; IC50 (human CB2 receptor): 1000 to 4990 nM; IC50 (human CB1 receptor [2]; [4]): 1000 to 3000 nM

**Q.** For `C=C(C)[C@@H]1CCC(C)=C[C@H]1c1c(O)cc(CCCCC)c(-c2ccco2)c1O` [Compound 15d, 3-(furan-2-yl)-5′-methyl-4-pentyl-2′-(prop-1-en-2-yl)-1′,2′,3′,4′-tetrahydro-[1,1′-biphenyl]-2,6-diol], which IC50 (human CB1 receptor [1]) is on record?
**A.** The IC50 was over 5 µM.

**Q.** And the IC50 (human CB2 receptor)?
**A.** Its IC50 is 1000 to 4990 nM.

**Q.** And the “Selectivity CB2” value (human CB2 receptor)?
**A.** Its value is 3.57 fold.

**Q.** What does the source list for `CCCCCc1cc(O)c(C2C=C(C)CCC2)c(O)c1-c1cccs1` (centres unmarked) [Compound 16c, 5′-methyl-4-pentyl-3-(thiophen-2-yl)-1′,2′,3′,4′-tetrahydro-[1,1′-biphenyl]-2,6-diol]?
**A.** IC50 (human CB1 receptor [1]): 1 to 4.99 µM; IC50 (human CB2 receptor): 500 to 990 nM; Selectivity CB2 (human CB2 receptor): 2.22 fold; activity towards the human CB1 receptor, agonist mode (human CB1 receptor [3]): minimal to no activity; IC50 (human CB1 receptor [2]; [4]): 1000 to 3000 nM

**Q.** For `C=C(C)[C@@H]1CCC(C)=C[C@H]1c1c(O)cc(CCCCC)c(-c2cccs2)c1O` [Compound 16d], which IC50 (human CB1 receptor [1]) is on record?
**A.** The IC50 was 1 to 4.99 µM.

**Q.** And the IC50 (human CB2 receptor)?
**A.** The IC50 was under 500 nM.

**Q.** What about the “Selectivity CB2” value (human CB2 receptor) of the same compound?
**A.** Its value is 7.50 fold.

**Q.** For `CCCCCc1cc(O)c(C2C=C(C)CCC2)c(O)c1-c1ccsc1` (centres unmarked) [Compound 17c, 5′-methyl-4-pentyl-3-(thiophen-3-yl)-1′,2′,3′,4′-tetrahydro-[1,1′-biphenyl]-2,6-diol], which IC50 (human CB1 receptor [1]) is on record?
**A.** Its IC50 is 1 to 4.99 µM.

**Q.** And the IC50 (human CB2 receptor)?
**A.** Its IC50 is 1000 to 4990 nM.

**Q.** What about the IC50 (human CB1 receptor [2]; [4]) of the same compound?
**A.** Its IC50 is 1000 to 3000 nM.

**Q.** Which IC50 (human CB1 receptor [1]) does the source give for `C=C(C)[C@@H]1CCC(C)=C[C@H]1c1c(O)cc(CCCCC)c(-c2ccsc2)c1O` [Compound 17d] here?
**A.** The IC50 was 1 to 4.99 µM.

**Q.** And the IC50 (human CB2 receptor)?
**A.** The IC50 was under 500 nM.

**Q.** And the “Selectivity CB2” value (human CB2 receptor)?
**A.** Its value is 33.33 fold.

**Q.** What about the “activity towards the human CB1 receptor, agonist mode” value (human CB1 receptor [3]) of the same compound?
**A.** The value was “minimal to no activity”.

**Q.** And the IC50 (human CB1 receptor [2])?
**A.** Its IC50 is 1000 to 3000 nM.

**Q.** For `C=C(C)[C@@H]1CCC(C)=C[C@H]1c1c(O)cc(CCCCC)c(-c2ccnn2C)c1O` [Compound 33d, 5′-methyl-3-(1-methyl-1H-pyrazol-5-yl)-4-pentyl-2′-(prop-1-en-2-yl)-1′,2′,3′,4′-tetrahydro-[1,1′-biphenyl]-2,6-diol], which IC50 (human CB1 receptor [1]) is on record?
**A.** Its IC50 is 1 to 4.99 µM.

**Q.** What about the “Selectivity CB1” value (human CB1 receptor [1]) of the same compound?
**A.** Its value is 1.00 fold.

**Q.** What about the IC50 (human CB2 receptor) of the same compound?
**A.** Its IC50 is 1000 to 4990 nM.

**Q.** What about the “Selectivity CB2” value (human CB2 receptor) of the same compound?
**A.** Its value is 1.00 fold.

**Q.** With `C=C(C)[C@@H]1CCC(C)=C[C@H]1c1c(O)cc(CCCCC)c(-c2cc3ccccc3s2)c1O` [Compound 34d, 4-(benzothiophen-2-yl)-2-[6-isopropenyl-3-methyl-cyclohez-2-en-1-yl]-5-pentyl-benzene-1,3-diol] as the compound, how does the IC50 (human CB1 receptor [1]) read?
**A.** Its IC50 is 1 to 4.99 µM.

**Q.** And the IC50 (human CB2 receptor)?
**A.** The IC50 was under 500 nM.

**Q.** And the “Selectivity CB2” value (human CB2 receptor)?
**A.** Its value is 7.22 fold.

**Q.** What about the “activity towards the human CB1 receptor, agonist mode” value (human CB1 receptor [3]) of the same compound?
**A.** The value was “minimal to no activity”.

**Q.** What about the IC50 (human CB1 receptor [2]; [4]) of the same compound?
**A.** Its IC50 is 1000 to 3000 nM.

**Q.** With `C=C(C)[C@@H]1CCC(C)=C[C@H]1c1c(O)cc(CCCCC)c(-c2ccnc(C)c2)c1O` [Compound 35d, 2-(6-isopropenyl-3-methyl-cyclohex-2-en-1-yl)-4-(2-methyl-4-pyridyl)-5-pentyl-benzene-1,3-diol] as the compound, how does the IC50 (human CB1 receptor [1]) read?
**A.** Its IC50 is 1 to 4.99 µM.

**Q.** What about the IC50 (human CB2 receptor) of the same compound?
**A.** The IC50 was 1000 to 4990 nM.

**Q.** And the “Selectivity CB2” value (human CB2 receptor)?
**A.** The value was 1.60 fold.

**Q.** What does the source list for `C=C(C)[C@@H]1CCC(C)=C[C@H]1c1c(O)cc(CCCCC)c(-c2c(C)noc2C)c1O` [Compound 36d, 3-(3,5-dimethylisoxazol-4-yl)-5′-methyl-4-pentyl-2′-(prop-1-en-2-yl)-1′,2′,3′,4′-tetrahydro-[1,1′-biphenyl]-2,6-diol]?
**A.** IC50 (human CB1 receptor [1]): 1 to 4.99 µM; Selectivity CB1 (human CB1 receptor [1]): 2.22 fold; IC50 (human CB2 receptor): 1000 to 4990 nM

**Q.** How did the IC50 (human CB1 receptor [1]) turn out when `CCCCCc1cc(OC)c(C2C=C(C)CCC2)c(OC)c1-c1cccc(N2CCOCC2)c1` (centres unmarked) [Compound 38c, 4-(2′,4′-dimethoxy-5″-methyl-6′-pentyl-1″,2″,3″,4″-tetrahydro-[1,1′:3′,1″-terphenyl]-3-yl)morpholine] was run?
**A.** Its IC50 is under 0.5 µM.

**Q.** What about the IC50 (human CB2 receptor) of the same compound?
**A.** Its IC50 is under 500 nM.

**Q.** What about the “Selectivity CB2” value (human CB2 receptor) of the same compound?
**A.** Its value is 19.05 fold.

**Q.** What does the source list for `CCCCCc1cc(OC)c(C2C=C(C)CCC2)c(OC)c1-c1cccnc1` (centres unmarked) [Compound 39c, 3-(2,6-dimethoxy-5′-methyl-4-pentyl-1′,2′,3′,4′-tetrahydro-[1,1′-biphenyl]-3-yl)pyridine]?
**A.** IC50 (human CB1 receptor [1]): > 5 µM; IC50 (human CB2 receptor): > 5000 nM; Selectivity CB2 (human CB2 receptor): 1.47 fold

**Q.** For `CCCCCc1cc(OC)c(C2C=C(C)CCC2)c(OC)c1-c1ccccc1` (centres unmarked) [Compound 40c, 2′,6′-dimethoxy-5-methyl-4′-pentyl-1,2,3,4-tetrahydro-1,1′:3′,1″-terphenyl], which IC50 (human CB1 receptor [1]) is on record?
**A.** The IC50 was over 5 µM.

**Q.** What about the IC50 (human CB2 receptor) of the same compound?
**A.** Its IC50 is 1000 to 4990 nM.

**Q.** And the “Selectivity CB2” value (human CB2 receptor)?
**A.** Its value is 1.79 fold.

**Q.** How did the IC50 (human CB1 receptor [1]) turn out when `C=C(C)[C@@H]1CCC(C)=C[C@H]1c1c(O)cc(CCCCC)c(-c2cn[nH]c2)c1O` [Compound 41d, 5′-methyl-4-pentyl-2′-(prop-1-en-2-yl)-3-(1H-pyrazol-4-yl)-1′,2′,3′,4′-tetrahydro-[1,1′-biphenyl]-2,6-diol] was run?
**A.** The IC50 was 1 to 4.99 µM.

**Q.** What about the IC50 (human CB2 receptor) of the same compound?
**A.** The IC50 was 1000 to 4990 nM.

**Q.** What about the “Selectivity CB2” value (human CB2 receptor) of the same compound?
**A.** Its value is 1.60 fold.
